Experimental data reported in patent US8205612B2, “Dry powder aerosol generator” (The University of North Carolina at Chapel Hill, NC, priority 2007, dated 2012).

Details: in vivo, iv, 20 mg/kg
Experimental: Where F is the absolute bioavailability, AUCLUNG and DLUNG are the area under the curve and dose, respectively, for drug administration through the lung. AUCIV and DIV are areas under the curve and dose, respectively, of drug administered intravenously. From internal PK Studies performed, it is known that F equals 0.54 for capreomycin particles administered through the lungs, AUCIV equals 48.47 μgh/ml, and DIV equals 20 mg/kg.

capreomycin
AUCIV: 48.47 μgh/ml
